The values below come from ChEMBL document CHEMBL1133437, “Parallel synthesis of a library of 1,4-naphthoquinones and automated screening of potential inhibitors of trypanothione reductase from Trypanosoma cruzi” (Bioorg Med Chem Lett, 2000).

A word on the IC50: it is the concentration at which inhibition is half-maximal. As usually defined, the inhibition is the percentage by which the read-out fell short of the control.

Assay [1] can be described thus: Concentration required for inhibition of human homologous Disulphide oxidoreductase (hGR) in the presence of GSSG as substrate.
The target in assay [2] is Trypanothione reductase (Trypanosoma cruzi, UniProt P28593). Description: Concentration required for inhibition of Trypanothione reductase (TcTR) from Trypanosoma cruzi in the presence of 50 uM TS2 as substrate.
Assay [3] addresses Trypanothione reductase (Trypanosoma cruzi) (UniProt P28593). Nature of the assay: Percentage inhibition of Trypanothione reductase at 25 uM in the presence of 200 uM DTNBA as substrate.
A short description of assay [4]: Concentration required for inhibition of human homologous Disulphide oxidoreductase (hGR).

Sequence of Trypanothione reductase (P28593 whole entry): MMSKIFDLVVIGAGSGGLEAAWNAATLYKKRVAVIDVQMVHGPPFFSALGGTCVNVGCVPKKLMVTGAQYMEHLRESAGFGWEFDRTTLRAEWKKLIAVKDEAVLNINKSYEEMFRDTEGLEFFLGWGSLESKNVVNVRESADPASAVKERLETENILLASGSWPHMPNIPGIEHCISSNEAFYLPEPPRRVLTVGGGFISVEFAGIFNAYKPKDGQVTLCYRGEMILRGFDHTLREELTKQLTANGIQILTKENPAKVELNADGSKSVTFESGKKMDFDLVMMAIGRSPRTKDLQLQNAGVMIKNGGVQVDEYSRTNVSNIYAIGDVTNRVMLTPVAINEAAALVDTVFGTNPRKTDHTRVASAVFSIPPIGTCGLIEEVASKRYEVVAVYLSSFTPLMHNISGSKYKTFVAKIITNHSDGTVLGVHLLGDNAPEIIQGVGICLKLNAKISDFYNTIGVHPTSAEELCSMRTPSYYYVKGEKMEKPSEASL
Sequence of Trypanothione reductase (Trypanosoma cruzi) (P28593 whole entry, looked up): as the sequence (P28593 whole entry) above

In the case of `CC1=C(CCCCC(=O)NCCCNCCCNC(=O)CCCCC2=C(C)C(=O)c3cccc(O)c3C2=O)C(=O)c2c(O)cccc2C1=O`, the IC50 came to 10 µM in assay [1] and 0.5 µM in assay [2]. In addition, the inhibition in assay [3] amounted to 79%.

Take `CCCCN(CCCC)CCCNC(=O)CCCCC1=C(C)C(=O)c2cccc(O)c2C1=O`: the IC50 worked out at 41 µM in assay [1] and 0.3 µM in assay [2]. The inhibition in assay [3] turned out to be 88%.

On to `CC1=CC(=O)c2ccccc2C1=O` [MENADIONE], for which the values for the IC50 in assay [4] and in assay [2] were 63 µM and 55 µM, respectively.

`CCCCN(CCCC)CCCNC(=O)CCCCC1=C(CCCCC(=O)NCCCN(CCCC)CCCC)C(=O)c2c(O)cccc2C1=O`: the IC50 in assay [1] was > 50 µM; in assay [2], 0.6 µM. Besides, in assay [3], the inhibition amounted to 81%.

On to `CC1=CC(=O)c2c(O)cccc2C1=O` [PLUMBAGIN], for which the IC50 in assay [4] was determined as 38 µM; in assay [2] it was 28 µM.

On to `CCCCN(CCCC)CCCNC(=O)CCCCC1=C(C)C(=O)c2ccccc2C1=O`, for which the IC50 in assay [1] is > 50 µM; in assay [2], 1.1 µM. Moreover, the inhibition in assay [3] is 86%.
